*1 amine or outer side, *2 acyl side, *3 side chain or, on linkers, in order; H or OH if unused. Where a SMILES comes first, the peptide text is derived from it. Bridges are numbered along the chain shown (N, C = ends). [ ]: non-standard residue; d: D form. The star is where a group is joined. hPhe(3,5-F2-4-CF3) = N[C@@H](CCc1cc(F)c(C(F)(F)F)c(F)c1)C(=O)O; NPrPhe(4-CF3) = CCCN[C@@H](Cc1ccc(C(F)(F)F)cc1)C(=O)O; NMeAbu(4,4,4-F3) = CN[C@@H](CC(F)(F)F)C(=O)O; X16 = O=C([C@@H](N[*:1])C1CC(F)(F)C1)[*:2]; NMeGly(cPent) = CN[C@H](C(=O)O)C1CCCC1; Ac4c(3,3-F2) = NC1(C(=O)O)CC(F)(F)C1; X9 = C[C@@](N[*:1])(C(=O)[*:2])C1CC1; Nva(3-Et) = CCC(CC)[C@H](N)C(=O)O; NMeD = CN[C@@H](CC(=O)O)C(=O)O; NMeL = CN[C@@H](CC(C)C)C(=O)O; Iva = CC[C@](C)(N)C(=O)O; Morpholide = C1CN(*)CCO1; Ac5c = NC1(C(=O)O)CCCC1; Aze = O=C(O)[C@@H]1CCN1; Sar = CNCC(=O)O
Experiments:
[1] = molecular target: GDP-bound HRAS wild-type protein (Homo sapiens, UniProt P01112); test: Binding to HRAS by surface plasmon resonance (SPR), Single Cycle Kinetics; conditions: KD ratio HRAS/KRAS, SPR
GDP-bound HRAS wild-type protein, sequence (P01112 whole entry): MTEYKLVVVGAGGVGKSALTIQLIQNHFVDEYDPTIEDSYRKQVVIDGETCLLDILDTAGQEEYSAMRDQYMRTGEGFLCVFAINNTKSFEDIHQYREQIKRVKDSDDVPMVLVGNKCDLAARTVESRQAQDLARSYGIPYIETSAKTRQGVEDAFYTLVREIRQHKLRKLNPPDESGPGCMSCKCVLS

[2] = molecular target: GDP-bound NRAS wild-type protein (Homo sapiens, UniProt P01111); test: Binding to NRAS by surface plasmon resonance (SPR), Single Cycle Kinetics; conditions: KD ratio NRAS/KRAS, SPR
GDP-bound NRAS wild-type protein, sequence (P01111 whole entry): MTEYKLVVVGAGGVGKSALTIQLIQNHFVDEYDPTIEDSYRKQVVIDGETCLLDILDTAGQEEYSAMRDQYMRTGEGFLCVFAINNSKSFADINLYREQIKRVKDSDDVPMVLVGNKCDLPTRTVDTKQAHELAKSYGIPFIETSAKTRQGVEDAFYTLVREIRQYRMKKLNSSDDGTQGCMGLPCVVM

Compound | HRAS/KRAS (ratio of KD value with respect to GDP-bound HRAS wild-type protein to KD value with respect to KRAS) [1] | NRAS/KRAS (ratio of KD value with respect to GDP-bound NRAS wild-type protein to KD value with respect to KRAS) [2]
CCCN1C(=O)CN(C)C(=O)[C@@H]2CCN2C(=O)[C@H]([C@@H](C)CC)NC(=O)[C@H](CC(C)C)N(C)C(=O)C[C@@H](C(=O)N2CCOCC2)N(C)C(=O)[C@H](C2CCCC2)N(C)C(=O)C2(CC(F)(F)C2)NC(=O)[C@@H]2CCCN2C(=O)[C@H](CCc2cc(F)c(C(F)(F)F)c(F)c2)NC(=O)CN(C)C(=O)[C@@H]1Cc1ccc(C(F)(F)F)cc1 [PP0783] ([NMeL]I[Aze][Sar][NPrPhe(4-CF3)][Sar][hPhe(3,5-F2-4-CF3)]P[Ac4c(3,3-F2)][NMeGly(cPent)][NMeD]-Morpholide; lactam N-11) | B (a compound having 3 or more and less than 10 is denoted as B) | B (a compound having 3 or more and less than 10 is denoted as B)
CCCN1C(=O)CN(C)C(=O)[C@@H]2CCN2C(=O)[C@H]([C@@H](C)CC)NC(=O)[C@H](CC(C)C)N(C)C(=O)C[C@@H](C(=O)N2CCOCC2)N(C)C(=O)[C@H](CC(F)(F)F)N(C)C(=O)C2(CCCC2)NC(=O)[C@@H]2CCCN2C(=O)[C@H](CCc2cc(F)c(C(F)(F)F)c(F)c2)NC(=O)CN(C)C(=O)[C@@H]1Cc1ccc(C(F)(F)F)cc1 [PP0784] ([NMeL]I[Aze][Sar][NPrPhe(4-CF3)][Sar][hPhe(3,5-F2-4-CF3)]P[Ac5c][NMeAbu(4,4,4-F3)][NMeD]-Morpholide; lactam N-11) | B (a compound having 3 or more and less than 10 is denoted as B) | B (a compound having 3 or more and less than 10 is denoted as B)
CCCN1C(=O)CN(C)C(=O)[C@@H]2CCN2C(=O)[C@H](C(CC)CC)NC(=O)[C@H](CC(C)C)N(C)C(=O)C[C@@H](C(=O)N2CCOCC2)N(C)C(=O)[C@H](C2CCCC2)N(C)C(=O)C2(CCCC2)NC(=O)[C@@H]2CCCN2C(=O)[C@H](CCc2cc(F)c(C(F)(F)F)c(F)c2)NC(=O)CN(C)C(=O)[C@@H]1Cc1ccc(C(F)(F)F)cc1 [PP0785] ([NMeL][Nva(3-Et)][Aze][Sar][NPrPhe(4-CF3)][Sar][hPhe(3,5-F2-4-CF3)]P[Ac5c][NMeGly(cPent)][NMeD]-Morpholide; lactam N-11) | B (a compound having 3 or more and less than 10 is denoted as B) | B (a compound having 3 or more and less than 10 is denoted as B)
CCCN1C(=O)CN(C)C(=O)[C@@H]2CCN2C(=O)[C@H](C2CC(F)(F)C2)NC(=O)[C@H](CC(C)C)N(C)C(=O)C[C@@H](C(=O)N2CCOCC2)N(C)C(=O)[C@H](C2CCCC2)N(C)C(=O)C2(CCCC2)NC(=O)[C@@H]2CCCN2C(=O)[C@H](CCc2cc(F)c(C(F)(F)F)c(F)c2)NC(=O)CN(C)C(=O)[C@@H]1Cc1ccc(C(F)(F)F)cc1 [PP0786] ([NMeL][X16][Aze][Sar][NPrPhe(4-CF3)][Sar][hPhe(3,5-F2-4-CF3)]P[Ac5c][NMeGly(cPent)][NMeD]-Morpholide; lactam N-11) | B (a compound having 3 or more and less than 10 is denoted as B) | B (a compound having 3 or more and less than 10 is denoted as B)
CCCN1C(=O)[C@@H]2CCN2C(=O)CN(C)C(=O)[C@H](C2CC(F)(F)C2)NC(=O)[C@H](CC(C)C)N(C)C(=O)C[C@@H](C(=O)N2CCOCC2)N(C)C(=O)[C@H](C2CCCC2)N(C)C(=O)C2(CCCC2)NC(=O)[C@@H]2CCCN2C(=O)[C@H](CCc2cc(F)c(C(F)(F)F)c(F)c2)NC(=O)CN(C)C(=O)[C@@H]1Cc1ccc(C(F)(F)F)cc1 [PP0787] ([NMeL][X16][Sar][Aze][NPrPhe(4-CF3)][Sar][hPhe(3,5-F2-4-CF3)]P[Ac5c][NMeGly(cPent)][NMeD]-Morpholide; lactam N-11) | B (a compound having 3 or more and less than 10 is denoted as B) | C (A compound having a KD ratio of 0.1 or more and less than 3 is denoted as C)
CCCN1C(=O)CN(C)C(=O)CN(C)C(=O)[C@H]([C@@H](C)CC)NC(=O)[C@H](CC(C)C)N(C)C(=O)C[C@@H](C(=O)N(C)C)N(C)C(=O)[C@H](C2CCCC2)N(C)C(=O)C2(CCCC2)NC(=O)[C@@H]2CCCN2C(=O)[C@H](CCc2cc(F)c(C(F)(F)F)c(F)c2)NC(=O)CN(C)C(=O)[C@@H]1Cc1ccc(C(F)(F)F)cc1 [PP0788] ([NMeL]I[Sar][Sar][NPrPhe(4-CF3)][Sar][hPhe(3,5-F2-4-CF3)]P[Ac5c][NMeGly(cPent)][NMeD]-NMe2; lactam N-11) | C (A compound having a KD ratio of 0.1 or more and less than 3 is denoted as C) | B (a compound having 3 or more and less than 10 is denoted as B)
CCCN1C(=O)[C@@H]2CCN2C(=O)CN(C)C(=O)[C@H]([C@@H](C)CC)NC(=O)[C@H](CC(C)C)N(C)C(=O)C[C@@H](C(=O)N2CCOCC2)N(C)C(=O)[C@H](C2CCCC2)N(C)C(=O)C2(CCCC2)NC(=O)[C@@H]2CCCN2C(=O)[C@H](CCc2cc(F)c(C(F)(F)F)c(F)c2)NC(=O)CN(C)C(=O)[C@@H]1Cc1ccc(C(F)(F)F)cc1 [PP0789] ([NMeL]I[Sar][Aze][NPrPhe(4-CF3)][Sar][hPhe(3,5-F2-4-CF3)]P[Ac5c][NMeGly(cPent)][NMeD]-Morpholide; lactam N-11) | B (a compound having 3 or more and less than 10 is denoted as B) | C (A compound having a KD ratio of 0.1 or more and less than 3 is denoted as C)
CCCN1C(=O)[C@@H]2CCN2C(=O)CN(C)C(=O)[C@H]([C@@H](C)CC)NC(=O)[C@H](CC(C)C)N(C)C(=O)C[C@@H](C(=O)N2CCOCC2)N(C)C(=O)[C@H](C2CCCC2)N(C)C(=O)[C@](C)(CC)NC(=O)[C@@H]2CCCN2C(=O)[C@H](CCc2cc(F)c(C(F)(F)F)c(F)c2)NC(=O)CN(C)C(=O)[C@@H]1Cc1ccc(C(F)(F)F)cc1 [PP0790] ([NMeL]I[Sar][Aze][NPrPhe(4-CF3)][Sar][hPhe(3,5-F2-4-CF3)]P[Iva][NMeGly(cPent)][NMeD]-Morpholide; lactam N-11) | B (a compound having 3 or more and less than 10 is denoted as B) | C (A compound having a KD ratio of 0.1 or more and less than 3 is denoted as C)
CCCN1C(=O)[C@@H]2CCN2C(=O)CN(C)C(=O)[C@H]([C@@H](C)CC)NC(=O)[C@H](CC(C)C)N(C)C(=O)C[C@@H](C(=O)N2CCOCC2)N(C)C(=O)[C@H](C2CCCC2)N(C)C(=O)[C@](C)(C2CC2)NC(=O)[C@@H]2CCCN2C(=O)[C@H](CCc2cc(F)c(C(F)(F)F)c(F)c2)NC(=O)CN(C)C(=O)[C@@H]1Cc1ccc(C(F)(F)F)cc1 [PP0791] ([NMeL]I[Sar][Aze][NPrPhe(4-CF3)][Sar][hPhe(3,5-F2-4-CF3)]P[X9][NMeGly(cPent)][NMeD]-Morpholide; lactam N-11) | B (a compound having 3 or more and less than 10 is denoted as B) | C (A compound having a KD ratio of 0.1 or more and less than 3 is denoted as C)
